Source: publication PMC4490784, “Compensatory induction of MYC expression by sustained CDK9 inhibition via a BRD4-dependent mechanism” (eLife, 2015)

Tests used:
CDK9-CycT1 = CDK9-CycT1 (Homo sapiens, UniProt P50750); assay: AlphaScreen-based kinase assay; format: biochemical; parameters: purchased Invitrogen
Description: (§1) The inhibitory activity of i-CDK9 for CDK1-CycB (Upstate/Millipore), CDK2-CycA (Invitrogen), CDK4-CycD1 (Novartis), CDK7-CycH-MAT1 (Invitrogen), and CDK9-CycT1 (Invitrogen) was assessed in the AlphaScreen (PerkinElmer, Inc)-based kinase assay developed at Novartis. Briefly, each CDK–cyclin pair was pre-incubated with i-CDK9 for 15 min, followed by addition of kinase substrates (ELK for CDK1 and CDK2, RB for CDK4, and CDK7tide for CDK7 and CDK9). The mixture was incubated at room temperature for additional 4–5 hr. The reaction was stopped and read on Envision (PerkinElmer, Inc). Selectivity against a large panel of over 400 kinases was evaluated using the KINOMEscan platform (DiscoveRx, CA) employing a proprietary active site-directed competition binding assay ([Fabian et al., 2005]). The assay was conducted at two different concentrations of i-CDK9 (1 and 10 µM) by DiscoveRx.

PKNB(M.tuberculosis) = target: T1, PKNB(M.tuberculosis) (Mycobacterium tuberculosis, UniProt P9WI81); assay: KINOMEscan binding assay; details: 1 µM i-CDK9; read-out: % Retention on Solid Support
T1 construct: purchased DiscoveRx KINOMEscan

CDK9 [1] = target: T2, CDK9 (Homo sapiens, UniProt P50750); assay: KINOMEscan binding assay; parameters: purchased DiscoveRx KINOMEscan; details: read-out: % Retention on Solid Support
Description: (§2) As there are no commercial or in-house kinase assays available for CDK3, CDK5, CDK11 and CDK13, the inhibitory abilities of i-CDK9 toward these CDKs were thus evaluated in the DiscoveRx KINOMEscan assay, which is based on a proprietary active site-directed competition-binding platform ([Fabian et al., 2005]).
as §1
Target sequence in this assay (P50750 whole entry): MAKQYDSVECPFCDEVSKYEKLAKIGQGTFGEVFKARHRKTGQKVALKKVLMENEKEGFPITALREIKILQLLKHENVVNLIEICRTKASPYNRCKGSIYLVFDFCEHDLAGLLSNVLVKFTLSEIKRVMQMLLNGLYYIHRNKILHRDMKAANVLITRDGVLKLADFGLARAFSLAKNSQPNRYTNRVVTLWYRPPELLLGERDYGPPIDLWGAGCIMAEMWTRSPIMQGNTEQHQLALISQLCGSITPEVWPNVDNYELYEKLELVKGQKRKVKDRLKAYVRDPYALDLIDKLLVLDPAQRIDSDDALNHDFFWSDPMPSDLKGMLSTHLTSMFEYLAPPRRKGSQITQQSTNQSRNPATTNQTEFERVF

[2] = tested on: 7SK snRNP in HeLa-based F1C2 cells; assay: CDK9-F co-immunoprecipitation: disruption of 7SK snRNP, formation of BRD4-P-TEFb; format: cell-based, human
Description: A number of stress-inducing agents/conditions are known to cause the release of P-TEFb from 7SK snRNP, which serves as the principal reservoir of uncommitted P-TEFb activity in the nucleus (reviewed in [Zhou et al., 2012]). […] CDK9-F was stably expressed in the HeLa-based F1C2 cells ([Yang et al., 2001]) that were treated with a wide range of i-CDK9 concentrations for 8 hr.
Just like the induction of MYC expression (Figure 3B), the disruption of 7SK snRNP and formation of BRD4-P-TEFb were highly sensitive to i-CDK9 and required as little as 0.1 μM of the drug (Figure 4A, compare lane 8 to lane 6). […] In a time course analysis, i-CDK9 (0.3 μM)-induced disruption of 7SK snRNP at a time point (1 hr) that was much earlier than that required to cause about 50% reduction in global pSer2 (8 hr; Figure 4—figure supplement 1).
All Co-immunoprecipitation experiments were performed in NEs prepared from F1C2 cells that stably express CDK9-F or the parental HeLa cells transfected with the indicated cDNAs. The procedures have been described previously ([Lu et al., 2014]).

CDK7-CycH-MAT1 = target: T3, CDK7-CycH-MAT1 (Homo sapiens, UniProt P50613); assay: AlphaScreen-based kinase assay; format: biochemical
T3 construct: purchased Invitrogen
Description: as §1

CDK2-CycA = target: T4, CDK2-CycA (Homo sapiens, UniProt P24941); assay: AlphaScreen-based kinase assay; format: biochemical
T4 construct: purchased Invitrogen
Description: as §1

CDK4-CycD1 = CDK4-CycD1 (Homo sapiens, UniProt P11802); assay: AlphaScreen-based kinase assay; format: biochemical
Description: as §1

CDK1-CycB = target: T5, CDK1-CycB (Homo sapiens, UniProt P06493); assay: AlphaScreen-based kinase assay; format: biochemical
T5 construct: purchased Upstate/Millipore
Description: as §1

CDK9 [3] = target: T2, CDK9; assay: biochemical binding or enzymatic assay; parameters: purchased Invitrogen
Description: Finally, the selectivity profile of i-CDK9 toward other non-CDK kinases was also assessed using the KINOMEscan platform. […] Except for CLK4, for which no suitable assay was available, the rest of the kinases plus a selected group of others were re-examined for the concentration-dependent effect of i-CDK9 in either functional kinase assays or binding assays. […] Indeed, it has recently been reported that DYRK1A acts as a Pol II CTD Kinase at its target gene promoters ([Di Vona et al., 2015]).
Target sequence in this assay (P50750 whole entry): as above
Target sequence in this assay (O60563 whole entry partner): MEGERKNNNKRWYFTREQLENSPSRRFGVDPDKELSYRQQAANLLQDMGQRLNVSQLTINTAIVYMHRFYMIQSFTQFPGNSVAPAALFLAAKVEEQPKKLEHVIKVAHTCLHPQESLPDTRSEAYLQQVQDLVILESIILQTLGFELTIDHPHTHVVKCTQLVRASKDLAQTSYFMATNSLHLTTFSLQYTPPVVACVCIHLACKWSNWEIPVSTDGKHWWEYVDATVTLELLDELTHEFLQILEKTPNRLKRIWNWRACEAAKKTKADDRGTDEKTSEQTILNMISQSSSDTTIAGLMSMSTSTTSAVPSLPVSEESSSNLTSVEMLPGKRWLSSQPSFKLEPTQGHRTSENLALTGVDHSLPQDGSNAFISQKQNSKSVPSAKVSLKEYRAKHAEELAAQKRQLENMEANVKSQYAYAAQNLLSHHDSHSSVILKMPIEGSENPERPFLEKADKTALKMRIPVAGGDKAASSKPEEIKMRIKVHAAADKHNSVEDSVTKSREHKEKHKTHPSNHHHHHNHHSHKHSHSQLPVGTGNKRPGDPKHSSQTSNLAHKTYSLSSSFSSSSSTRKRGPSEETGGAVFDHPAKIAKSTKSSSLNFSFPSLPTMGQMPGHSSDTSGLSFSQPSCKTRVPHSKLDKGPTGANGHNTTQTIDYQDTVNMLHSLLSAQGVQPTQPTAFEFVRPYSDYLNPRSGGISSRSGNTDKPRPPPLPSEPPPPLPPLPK

[4] = target: JAK2(JH1domain-catalytic) (Homo sapiens, UniProt O60674); assay: KINOMEscan binding assay; parameters: JAK2(JH1domain-catalytic); purchased DiscoveRx KINOMEscan
Description: as §2, §1

[5] = target: JAK1(JH1domain-catalytic) (Homo sapiens, UniProt P23458); assay: KINOMEscan binding assay; parameters: JAK1(JH1domain-catalytic); purchased DiscoveRx KINOMEscan
Description: as §2, §1

CDK9-CycT1, sequence (P50750 whole entry): as the sequence (P50750 whole entry) above
CDK9-CycT1, sequence (O60563 whole entry partner): as the sequence (O60563 whole entry partner) above
JAK2(JH1domain-catalytic), sequence (O60674 840-1132 limits assumed): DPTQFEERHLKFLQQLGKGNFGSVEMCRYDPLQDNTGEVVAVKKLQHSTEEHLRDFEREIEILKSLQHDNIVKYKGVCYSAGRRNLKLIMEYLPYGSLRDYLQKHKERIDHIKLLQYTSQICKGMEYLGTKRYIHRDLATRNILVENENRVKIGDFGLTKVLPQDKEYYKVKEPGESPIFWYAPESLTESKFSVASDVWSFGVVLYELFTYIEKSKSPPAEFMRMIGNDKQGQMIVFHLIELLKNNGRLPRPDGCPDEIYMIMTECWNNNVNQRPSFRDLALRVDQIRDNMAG
JAK1(JH1domain-catalytic), sequence (P23458 854-1154 limits assumed): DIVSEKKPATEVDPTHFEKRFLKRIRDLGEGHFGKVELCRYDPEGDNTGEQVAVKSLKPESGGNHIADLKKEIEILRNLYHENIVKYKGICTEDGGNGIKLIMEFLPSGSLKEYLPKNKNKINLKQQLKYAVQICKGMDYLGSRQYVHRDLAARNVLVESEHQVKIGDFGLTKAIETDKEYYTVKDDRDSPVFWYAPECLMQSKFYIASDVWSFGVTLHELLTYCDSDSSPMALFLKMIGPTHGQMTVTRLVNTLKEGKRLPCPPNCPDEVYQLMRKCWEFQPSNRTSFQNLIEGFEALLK
T1 sequence (P9WI81 whole entry): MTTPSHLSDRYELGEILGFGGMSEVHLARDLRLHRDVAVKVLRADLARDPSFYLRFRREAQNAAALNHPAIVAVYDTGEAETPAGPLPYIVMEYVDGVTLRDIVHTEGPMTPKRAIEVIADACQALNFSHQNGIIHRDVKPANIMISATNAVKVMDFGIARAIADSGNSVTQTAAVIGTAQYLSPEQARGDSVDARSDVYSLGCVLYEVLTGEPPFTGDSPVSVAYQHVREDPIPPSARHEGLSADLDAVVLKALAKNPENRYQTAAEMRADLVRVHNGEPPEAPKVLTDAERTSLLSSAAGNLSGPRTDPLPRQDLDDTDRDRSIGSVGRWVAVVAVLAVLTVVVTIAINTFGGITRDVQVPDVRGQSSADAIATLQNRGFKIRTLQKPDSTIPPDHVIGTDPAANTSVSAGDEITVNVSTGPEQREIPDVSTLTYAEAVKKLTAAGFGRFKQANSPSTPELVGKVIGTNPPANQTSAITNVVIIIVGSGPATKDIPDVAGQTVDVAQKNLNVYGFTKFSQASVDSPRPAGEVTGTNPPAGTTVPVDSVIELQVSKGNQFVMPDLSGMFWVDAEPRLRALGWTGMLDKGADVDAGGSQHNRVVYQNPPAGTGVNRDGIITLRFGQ
T5 sequence (P06493 whole entry): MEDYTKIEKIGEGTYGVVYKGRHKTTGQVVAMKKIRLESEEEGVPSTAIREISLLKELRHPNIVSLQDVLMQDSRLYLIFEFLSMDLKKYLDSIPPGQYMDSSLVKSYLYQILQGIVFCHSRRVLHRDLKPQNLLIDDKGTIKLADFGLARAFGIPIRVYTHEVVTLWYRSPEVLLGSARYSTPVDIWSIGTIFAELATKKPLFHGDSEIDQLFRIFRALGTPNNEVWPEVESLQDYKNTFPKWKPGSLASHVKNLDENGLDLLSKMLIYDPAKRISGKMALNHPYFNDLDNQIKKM
T5 sequence (P14635 whole entry partner): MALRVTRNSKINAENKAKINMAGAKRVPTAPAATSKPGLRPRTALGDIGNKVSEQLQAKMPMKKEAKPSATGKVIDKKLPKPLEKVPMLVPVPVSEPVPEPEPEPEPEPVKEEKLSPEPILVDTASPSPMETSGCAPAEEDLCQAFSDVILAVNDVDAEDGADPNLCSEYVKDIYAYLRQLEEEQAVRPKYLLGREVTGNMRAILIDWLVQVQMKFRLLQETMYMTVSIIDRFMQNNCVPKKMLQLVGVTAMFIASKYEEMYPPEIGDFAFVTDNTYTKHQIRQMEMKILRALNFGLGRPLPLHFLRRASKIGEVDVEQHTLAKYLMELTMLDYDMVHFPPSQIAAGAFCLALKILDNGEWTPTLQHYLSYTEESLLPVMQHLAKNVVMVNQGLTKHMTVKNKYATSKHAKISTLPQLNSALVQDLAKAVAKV
CDK4-CycD1, sequence (P11802 whole entry): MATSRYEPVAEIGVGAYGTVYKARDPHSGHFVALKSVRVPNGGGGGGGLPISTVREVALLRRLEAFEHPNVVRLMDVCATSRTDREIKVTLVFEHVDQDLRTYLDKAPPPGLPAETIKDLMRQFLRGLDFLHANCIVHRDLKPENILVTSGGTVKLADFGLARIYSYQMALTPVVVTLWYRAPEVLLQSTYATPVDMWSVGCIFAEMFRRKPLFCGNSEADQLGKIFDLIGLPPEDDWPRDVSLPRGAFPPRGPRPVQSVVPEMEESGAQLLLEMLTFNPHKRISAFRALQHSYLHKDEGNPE
CDK4-CycD1, sequence (P24385 whole entry partner): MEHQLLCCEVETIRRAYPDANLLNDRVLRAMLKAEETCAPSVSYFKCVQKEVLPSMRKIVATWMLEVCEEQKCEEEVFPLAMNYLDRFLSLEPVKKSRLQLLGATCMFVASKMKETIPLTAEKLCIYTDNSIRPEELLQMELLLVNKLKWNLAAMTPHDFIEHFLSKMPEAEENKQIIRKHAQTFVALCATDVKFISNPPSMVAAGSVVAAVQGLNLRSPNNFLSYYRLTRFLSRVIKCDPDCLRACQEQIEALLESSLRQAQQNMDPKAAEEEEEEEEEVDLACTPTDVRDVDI
T3 sequence (P50613 whole entry): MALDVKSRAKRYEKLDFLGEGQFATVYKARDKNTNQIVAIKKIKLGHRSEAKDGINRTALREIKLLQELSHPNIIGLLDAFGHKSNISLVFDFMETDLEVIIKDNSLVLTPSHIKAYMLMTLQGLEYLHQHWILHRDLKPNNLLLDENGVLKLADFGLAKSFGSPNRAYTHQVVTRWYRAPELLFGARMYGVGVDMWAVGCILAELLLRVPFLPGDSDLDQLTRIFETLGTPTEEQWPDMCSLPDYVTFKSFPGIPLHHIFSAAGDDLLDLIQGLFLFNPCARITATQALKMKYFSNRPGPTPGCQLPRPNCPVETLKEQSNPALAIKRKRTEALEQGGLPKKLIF
T3 sequence (P51946 whole entry partner): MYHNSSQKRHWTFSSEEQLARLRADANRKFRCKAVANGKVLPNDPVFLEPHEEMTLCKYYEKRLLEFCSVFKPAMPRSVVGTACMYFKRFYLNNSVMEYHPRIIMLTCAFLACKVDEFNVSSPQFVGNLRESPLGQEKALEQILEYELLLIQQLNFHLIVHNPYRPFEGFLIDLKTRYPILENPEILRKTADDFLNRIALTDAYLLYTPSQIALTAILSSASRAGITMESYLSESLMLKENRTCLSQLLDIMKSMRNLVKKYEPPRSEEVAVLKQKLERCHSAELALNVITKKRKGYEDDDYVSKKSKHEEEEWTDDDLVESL
T3 sequence (P51948 whole entry partner): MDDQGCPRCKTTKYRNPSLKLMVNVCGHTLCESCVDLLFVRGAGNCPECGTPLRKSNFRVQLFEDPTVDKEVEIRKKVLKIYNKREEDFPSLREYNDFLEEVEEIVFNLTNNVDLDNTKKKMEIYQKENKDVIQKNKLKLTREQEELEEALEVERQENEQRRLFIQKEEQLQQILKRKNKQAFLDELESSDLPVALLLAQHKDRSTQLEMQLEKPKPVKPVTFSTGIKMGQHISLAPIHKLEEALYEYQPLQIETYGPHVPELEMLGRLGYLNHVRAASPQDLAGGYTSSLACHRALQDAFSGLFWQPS

In the case of `N[C@H]1CC[C@H](Nc2cc(-c3cccc(NCc4cccc(F)c4)n3)c(Cl)cn2)CC1` [i-CDK9, N2′-(trans-4-aminocyclohexyl)-5′-chloro-N6-(3-fluorobenzyl)-2,4′-bipyridine-2′,6-diamine], the IC50 (CDK9-CycT1) is reported as at most 0.4 nM, the “fold lower activity toward CDK1-CycB, CDK2-CycA, CDK4-CycD1, CDK7-CycH-MAT1 and CDK8-CycC compared to CDK9-CycT1” value (CDK9-CycT1; selectivity) is reported as “at least 600 fold” and the remaining binding at 1 µM (PKNB(M.tuberculosis)) is reported as 100%. For the same molecule, the remaining binding at 1 µM (CDK9 [1]; 1 µM i-CDK9) was 5.1%, the remaining binding at 10 µM (CDK9 [1]; 10 µM i-CDK9) was 0% and the “time point of disruption of 7SK snRNP” value ([2]; 0.3 μM) was 1 h. The “concentration required for disruption of 7SK snRNP and formation of BRD4-P-TEFb” value ([2]; 8 hr) was 0.1 µM, the IC50 (CDK7-CycH-MAT1) was 2000 nM and the IC50 (CDK2-CycA) was 240 nM. The IC50 (CDK4-CycD1) was 1800 nM, the IC50 (CDK1-CycB) was 1700 nM and the IC50 (CDK9 [3]) was under 0.4 nM. The “fold difference between CDK9 and the next two best targets DYRK1A and DYRK1B” value (CDK9 [3]; selectivity) was “more than 100 fold”, the “% Retention on Solid Support” value ([4]; 1 µM i-CDK9) was 76% and the “% Retention on Solid Support” value ([4]; 10 µM i-CDK9) was 84%. For the same molecule, the “% Retention on Solid Support” value ([5]; 1 µM i-CDK9) was 100% and the “% Retention on Solid Support” value ([5]; 10 µM i-CDK9) was 100%.
